Results: ChEMBL document CHEMBL4602605, “Fluoroquinolones structural and medicinal developments (2013-2018): Where are we now?” (Bioorg Med Chem, 2019)
Values after ≈ are worked out from the molar mass of the structure shown.

Experiments:
Assay type in all cases: functional
[1] = tested on: Pseudomonas aeruginosa; experiment: Antimicrobial activity against Pseudomonas aeruginosa ATCC 19429 incubated for 18 hrs by CLSI-based microbroth dilution method; conditions: ATCC 19429, 18 h
[2] = tested on: Staphylococcus aureus; experiment: Antimicrobial activity against Staphylococcus aureus ATCC 25923 incubated for 18 hrs by CLSI-based microbroth dilution method; conditions: ATCC 25923, 18 h
[3] = tested on: Escherichia coli; experiment: Antibacterial activity against Escherichia coli incubated for 18 hrs by CLSI-based broth microdilution method
[4] = tested on: Streptococcus pneumoniae; experiment: Antibacterial activity against Streptococcus pneumoniae ATCC 49619 incubated for 24 hrs; conditions: ATCC 49619, 24 h
[5] = tested on: Pseudomonas aeruginosa; experiment: Antimicrobial activity against Pseudomonas aeruginosa ATCC 27853 incubated for 24 hrs; conditions: ATCC 27853, 24 h
[6] = tested on: Escherichia coli; experiment: Antimicrobial activity against Escherichia coli ATCC 25922 incubated for 24 hrs; conditions: ATCC 25922, 24 h
[7] = tested on: Staphylococcus aureus; experiment: Antimicrobial activity against Staphylococcus aureus ATCC 29213 incubated for 24 hrs; conditions: ATCC 29213, 24 h
[8] = tested on: Staphylococcus aureus; experiment: Antimicrobial activity against methicillin-susceptible Staphylococcus aureus ATCC 29213 incubated for 18 to 24 hrs by two-fold serial dilution method
[9] = tested on: Enterococcus faecium; experiment: Antimicrobial activity against Enterococcus faecium ATCC 700221 incubated for 18 to 24 hrs by two-fold serial dilution method
[10] = tested on: Mycobacterium tuberculosis; experiment: Antimicrobial activity against Mycobacterium tuberculosis H37Rv ATCC 27294 incubated for 7 days by microplate Alamar blue assay; conditions: H37Rv ATCC 27294, 168 h
[11] = tested on: Staphylococcus aureus; experiment: Antimicrobial activity against methicillin-resistant Staphylococcus aureus ATCC 33591 incubated for 18 to 24 hrs by two-fold serial dilution method
[12] = tested on: Staphylococcus epidermidis; experiment: Antimicrobial activity against methicillin-susceptible Staphylococcus epidermidis ATCC 12228 incubated for 18 to 24 hrs by two-fold serial dilution method

SMILES	MIC [1] [µg/mL]	MIC [2] [µg/mL]	MIC [3] [µg/mL]	MIC [4] [µg/mL]	MIC [5] [µg/mL]	MIC [6] [µg/mL]	MIC [7] [µg/mL]	also measured
O=C(O)c1cn(C2CC2)c2cc(N3CCCC3)c(F)cc2c1=O	> 128	0.0625 (≈ 0.198 µM)						
CCn1cc(C(=O)O)c(=O)c2cc(F)c(N(C)C)cc21	64 (≈ 230 µM)	0.5 (≈ 1.8 µM)	2 (≈ 7.19 µM)					
O=C(O)c1cn(C2CC2)c2cc(N3CCCCC3)c(F)cc2c1=O	32 (≈ 96.9 µM)	0.25 (≈ 0.757 µM)						
O=C(O)c1cn(C2CC2)c2cc(N3CCOCC3)c(F)cc2c1=O	8 (≈ 24.1 µM)	125 (≈ 376 µM)						
CN1CCN(c2cc3c(cc2F)c(=O)c(C(=O)O)cn3C2CC2)CC1	1 (≈ 2.9 µM)	0.25 (≈ 0.724 µM)	0.0078 (≈ 0.0226 µM)					
CCn1cc(C(=O)O)c(=O)c2cc(F)c(N3CCN(C/C(=N/N)c4ccc([N+](=O)[O-])cc4)CC3)cc21				25 (≈ 50.4 µM)	50 (≈ 101 µM)	12.5 (≈ 25.2 µM)	12.5 (≈ 25.2 µM)	
CCn1cc(C(=O)O)c(=O)c2cc(F)c(N3CCN(C/C(=N/OC)c4ccccc4)CC3)cc21				> 100	> 100	50 (≈ 107 µM)	50 (≈ 107 µM)	
CCn1cc(C(=O)O)c(=O)c2cc(F)c(N3CCN(C/C(=N\Nc4ccccc4)c4ccccc4)CC3)cc21				100 (≈ 190 µM)	100 (≈ 190 µM)	25 (≈ 47.4 µM)	50 (≈ 94.8 µM)	
CCn1cc(C(=O)O)c(=O)c2cc(F)c(N3CCN(C/C(=N\N)c4ccccc4)CC3)cc21				50 (≈ 111 µM)	100 (≈ 221 µM)	12.5 (≈ 27.7 µM)	25 (≈ 55.4 µM)	
Cl.O=C(O)c1cn(Cc2ccccc2)c2cc(N3CCNCC3)c(F)cc2c1=O	2	2	1					
CCn1cc(C(=O)O)c(=O)c2cc(F)c(N3CCNCC3)cc21.Cl	1	2						
CCCCN(CCCC)c1cc2c(cc1F)c(=O)c(C(=O)O)cn2CC	> 128	8 (≈ 22.1 µM)	> 128					
CCCCN(CCCC)c1cc2c(cc1F)c(=O)c(C(=O)O)cn2C1CC1	> 128	8 (≈ 21.4 µM)	> 128					
CCn1cc(C(=O)O)c(=O)c2cc(F)c(N3CCN(C/C(=N/OC)c4ccc(C)cc4)CC3)cc21				100 (≈ 208 µM)	> 100	25 (≈ 52 µM)	25 (≈ 52 µM)	
CC(C)n1cc(C(=O)O)c(=O)c2cc(F)c(N3CCNCC3)cc21.Cl	4	8	0.5					
CCN(CC)c1cc2c(cc1F)c(=O)c(C(=O)O)cn2CC	> 128	4 (≈ 13.1 µM)	8 (≈ 26.1 µM)					
CCn1cc(C(=O)O)c(=O)c2cc(F)c(N3CCN(C/C(=N/Nc4ccccc4)c4ccc(OC)cc4)CC3)cc21				100 (≈ 179 µM)	100 (≈ 179 µM)	25 (≈ 44.8 µM)	25 (≈ 44.8 µM)	
CCn1cc(C(=O)O)c(=O)c2cc(F)c(N3CCN(C/C(=N/O)c4ccc([N+](=O)[O-])cc4)CC3)cc21				50 (≈ 101 µM)	100 (≈ 201 µM)	12.5 (≈ 25.1 µM)	6.25 (≈ 12.6 µM)	
CN(C)c1cc2c(cc1F)c(=O)c(C(=O)O)cn2C1CC1	8 (≈ 27.6 µM)	125 (≈ 431 µM)						
CCCCCCn1cc(C(=O)O)c(=O)c2cc(F)c(N3CCNCC3)cc21.Cl	> 128	> 128	64					
Cc1ccc(/C(CN2CCN(c3cc4c(cc3F)c(=O)c(C(=O)O)cn4C3CC3)CC2)=N\NC(N)=O)cc1				25 (≈ 48 µM)	50 (≈ 96 µM)	12.5 (≈ 24 µM)	6.25 (≈ 12 µM)	

SMILES	MIC [1] [µg/mL]	MIC [2] [µg/mL]	MIC [3] [µg/mL]	MIC [4] [µg/mL]	MIC [5] [µg/mL]	MIC [6] [µg/mL]	MIC [7] [µg/mL]	also measured
Cl.NCCNc1cc2c(cc1F)c(=O)c(C(=O)O)cn2C1CC1	4	16	1					
CCn1cc(C(=O)O)c(=O)c2cc(F)c(N3CCN(C/C(=N/Nc4ccccc4)c4ccc(C)cc4)CC3)cc21				100 (≈ 185 µM)	> 100	25 (≈ 46.2 µM)	50 (≈ 92.3 µM)	
CCn1cc(C(=O)O)c(=O)c2cc(F)c(N3CCN(C/C(=N/O)c4ccc(C)cc4)CC3)cc21				100 (≈ 214 µM)	100 (≈ 214 µM)	50 (≈ 107 µM)	50 (≈ 107 µM)	
COc1ccc(/C(CN2CCN(c3cc4c(cc3F)c(=O)c(C(=O)O)cn4C3CC3)CC2)=N\O)cc1				50 (≈ 101 µM)	100 (≈ 202 µM)	12.5 (≈ 25.3 µM)	6.25 (≈ 12.6 µM)	
CCn1cc(C(=O)O)c(=O)c2cc(F)c(N3CCN(C/C(=N/N)c4ccc(C)cc4)CC3)cc21				25 (≈ 53.7 µM)	100 (≈ 215 µM)	25 (≈ 53.7 µM)	12.5 (≈ 26.9 µM)	
CCn1cc(C(=O)O)c(=O)c2cc(F)c(N3CCN(C/C(=N/NC(N)=O)c4ccc([N+](=O)[O-])cc4)CC3)cc21				12.5 (≈ 23.2 µM)	50 (≈ 92.7 µM)	6.25 (≈ 11.6 µM)	6.25 (≈ 11.6 µM)	
CCCCn1cc(C(=O)O)c(=O)c2cc(F)c(N3CCNCC3)cc21.Cl	16	16	2					
CCn1cc(C(=O)O)c(=O)c2cc(F)c(N3CCN(C/C(=N\Nc4ccccc4)c4ccc([N+](=O)[O-])cc4)CC3)cc21				100 (≈ 175 µM)	> 100	50 (≈ 87.3 µM)	50 (≈ 87.3 µM)	
COc1ccc(Cn2cc(C(=O)O)c(=O)c3cc(F)c(N4CCNCC4)cc32)cc1.Cl	> 128	64	128					
CCn1cc(C(=O)O)c(=O)c2cc(F)c(N3CCN(C/C(=N/OC)c4ccc(OC)cc4)CC3)cc21				100 (≈ 201 µM)	100 (≈ 201 µM)	50 (≈ 101 µM)	50 (≈ 101 µM)	
CCN(CC)c1cc2c(cc1F)c(=O)c(C(=O)O)cn2C1CC1	32 (≈ 101 µM)	0.5 (≈ 1.57 µM)	1 (≈ 3.14 µM)					
CCn1cc(C(=O)O)c(=O)c2cc(F)c(N3CCN(C/C(=N/OC)c4ccc([N+](=O)[O-])cc4)CC3)cc21				100 (≈ 195 µM)	100 (≈ 195 µM)	25 (≈ 48.9 µM)	25 (≈ 48.9 µM)	
COc1ccc(/C(CN2CCN(c3cc4c(cc3F)c(=O)c(C(=O)O)cn4C3CC3)CC2)=N/NC(N)=O)cc1				12.5 (≈ 23.3 µM)	50 (≈ 93.2 µM)	12.5 (≈ 23.3 µM)	6.25 (≈ 11.6 µM)	
COc1ccc(/C(CN2CCN(c3cc4c(cc3F)c(=O)c(C(=O)O)cn4C3CC3)CC2)=N\N)cc1				12.5 (≈ 25.3 µM)	100 (≈ 203 µM)	12.5 (≈ 25.3 µM)	6.25 (≈ 12.7 µM)	
CCn1cc(C(=O)O)c(=O)c2cc(F)c(N3CCCCCC3)cc21	> 128	0.5 (≈ 1.5 µM)	16 (≈ 48.1 µM)					
O=C(O)c1cn(C2CC2)c2cc(N3CCCCCC3)c(F)cc2c1=O	> 128	0.25 (≈ 0.726 µM)	2 (≈ 5.81 µM)					
COc1c(N2CCN(CCn3ccnn3)CC2)c(F)cc2c(=O)c(C(=O)O)cn(C3CC3)c12								MIC [8]: 4 µg/mL (≈ 8.76 µM); MIC [9]: > 128 µg/mL; MIC [10]: 14.2 µM (≈ 6.48 µg/mL); MIC [11]: 4 µg/mL (≈ 8.76 µM); MIC [12]: 4 µg/mL (≈ 8.76 µM)
Cl.O=C(O)c1cn(CCO)c2cc(N3CCNCC3)c(F)cc2c1=O	64	64	4					
Cl.Cn1cc(C(=O)O)c(=O)c2cc(F)c(N3CCNCC3)cc21	2	8	0.25					
CCn1cc(C(=O)O)c(=O)c2cc(F)c(N3CCN(C/C(=N/NC(N)=O)c4ccccc4)CC3)cc21				100 (≈ 202 µM)	100 (≈ 202 µM)	25 (≈ 50.6 µM)	12.5 (≈ 25.3 µM)	
CCn1cc(C(=O)O)c(=O)c2cc(F)c(N3CCN(C/C(=N\O)c4ccccc4)CC3)cc21				100 (≈ 221 µM)	100 (≈ 221 µM)	50 (≈ 111 µM)	50 (≈ 111 µM)	
